Tests used:
HLA-DRB1*0401 = HLA-DRB1*0401 (Homo sapiens (Human), UniProt P01903+P01911, A100K/A169T/DEL228-266/F76Y/I96L/K127E/L162R/M171V/N62H/P40V/Q125Y/R42H/S133A/S149N/S66Y/V115G/V209L/W38E); experiment: HLA-DR4 HTRF assay; assay type: binding; conditions: inhibition of loading of Alexa Fluor 647-labeled Cit-CII peptide onto HLA-DR4 (CLIP cleaved)
Method in brief: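 HLA-DRB1*04:01 construct (α/β fused to human Fc, CLIP pre-cleaved by HRV3C overnight at 4° C) at 3 nM was preincubated 45 min with compound and 1 nM anti-Fc-Tb donor, then 40 nM Alexa647-Cit-CII1236-1249 peptide added. After 90 min at 37° C, the 665/620 nm HTRF ratio gave % inhibition; IC50 by nonlinear regression.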

[1] = test system: HLA-DR4 restricted mouse T cell hybridoma line (DR4.CII.36.8) with HLA-DRB1*04:01-expressing Boleth cells; experiment: HLA-DR4-restricted peptide-specific T cell-based assay (hybridoma assay); conditions: 6 h, inhibition of IL-2 production, CII259-273 peptide presented by Boleth cells
Method in brief: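 Boleth cells (HLA-DRB1*04:01 B cell line) pre-incubated with compound 1 h at 37° C. in DMEM/1% FCS, then DR4.CII.36.8 mouse T cell hybridoma (CII259-273-specific) added for 6 h with CII259-273 peptide. Supernatant mouse IL-2 by AlphaLISA; IC50 by 4-PL fit of 8-point duplicate titrations.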

## COc1ccc([C@H](Oc2c(F)cc3c(c2C)OCCC3=O)c2ccncc2)cc1F (single isomer, unassigned) [Example 97a, (*R)-6-fluoro-7-((3-fluoro-4-methoxyphenyl)(pyridin-4-yl)methoxy)-8-methylchroman-4-one]
HLA-DRB1*0401
  IC50: 0.41 µM
[1]; Mus musculus, T-cell
  IC50: 5.2 µM

## COc1ccc([C@@H](Oc2c(F)cc3c(c2C)OCCC3=O)c2ccncc2)cc1F (single isomer, unassigned) [Example 97b, (*S)-6-fluoro-7-((3-fluoro-4-methoxyphenyl)(pyridin-4-yl)methoxy)-8-methylchroman-4-one]
HLA-DRB1*0401
  IC50: 0.38 µM
[1]; Mus musculus, T-cell
  IC50: > 15 µM

## NC(=O)c1ccc([C@H](Oc2ccc3c(c2)OCCC3=O)c2ccncc2)c2ccccc12 (single isomer, unassigned) [Example 98a, (*R)-4-(((4-oxochroman-7-yl)oxy)(pyridin-4-yl)methyl)-1-naphthamide]
HLA-DRB1*0401
  IC50: 9 µM
[1]; Mus musculus, T-cell
  IC50: 5.9 µM

## NC(=O)c1ccc([C@@H](Oc2ccc3c(c2)OCCC3=O)c2ccncc2)c2ccccc12 (single isomer, unassigned) [Example 98b, (*S)-4-(((4-oxochroman-7-yl)oxy)(pyridin-4-yl)methyl)-1-naphthamide]
HLA-DRB1*0401
  IC50: 10 µM
[1]; Mus musculus, T-cell
  IC50: > 15 µM

## CCc1cc(O[C@H](c2ccncc2)c2ccc(C(N)=O)cc2)cc2c1C(=O)CCO2 (single isomer, unassigned) [Example 99b, (*S)-4-(((5-ethyl-4-oxochroman-7-yl)oxy)(pyridin-4-yl)methyl)benzamide]
HLA-DRB1*0401
  IC50: > 89 µM
[1]; Mus musculus, T-cell
  IC50: 5.5 µM

## COc1c(O[C@@H](c2ccncc2)c2ccc(C(N)=O)cc2)ccc2c1OCCC2=O (single isomer, unassigned) [Example 100a, (*R)-4-(((8-methoxy-4-oxochroman-7-yl)oxy)(pyridin-4-yl)methyl)benzamide]
HLA-DRB1*0401
  IC50: 6.4 µM
[1]; Mus musculus, T-cell
  IC50: 7.6 µM

## COc1c(O[C@H](c2ccncc2)c2ccc(C(N)=O)cc2)ccc2c1OCCC2=O (single isomer, unassigned) [Example 100b, (*S)-4-(((8-methoxy-4-oxochroman-7-yl)oxy)(pyridin-4-yl)methyl)benzamide]
HLA-DRB1*0401
  IC50: 9 µM
[1]; Mus musculus, T-cell
  IC50: 2.3 µM

## N#Cc1cc(O[C@@H](c2ccncc2)c2ccc(C(N)=O)cc2)cc2c1C(=O)CCO2 (single isomer, unassigned) [Example 101a, (*R)-4-(((5-cyano-4-oxochroman-7-yl)oxy)(pyridin-4-yl)methyl)benzamide]
HLA-DRB1*0401
  IC50: 0.96 µM
[1]; Mus musculus, T-cell
  IC50: > 15 µM

## N#Cc1cc(O[C@H](c2ccncc2)c2ccc(C(N)=O)cc2)cc2c1C(=O)CCO2 (single isomer, unassigned) [Example 101b, (*S)-4-(((5-cyano-4-oxochroman-7-yl)oxy)(pyridin-4-yl)methyl)benzamide]
HLA-DRB1*0401
  IC50: 1.3 µM
[1]; Mus musculus, T-cell
  IC50: 12 µM

## COc1ccc([C@@H](Oc2c(F)cc3c(c2C)OCCC3=O)c2ccncc2)cc1 (single isomer, unassigned) [Example 103a, (*R)-6-fluoro-7-((4-methoxyphenyl)(pyridin-4-yl)methoxy)-8-methylchroman-4-one]
HLA-DRB1*0401
  IC50: 2.9 µM
[1]; Mus musculus, T-cell
  IC50: 15 µM

## COc1ccc([C@H](Oc2c(F)cc3c(c2C)OCCC3=O)c2ccncc2)cc1 (single isomer, unassigned) [Example 103b, (*S)-6-fluoro-7-((4-methoxyphenyl)(pyridin-4-yl)methoxy)-8-methylchroman-4-one]
HLA-DRB1*0401
  IC50: 2.8 µM
[1]; Mus musculus, T-cell
  IC50: 15 µM

## Cc1c(O[C@@H](c2ccncc2)c2ccc(S(C)(=O)=O)cc2)c(F)cc2c1OCCC2=O (single isomer, unassigned) [Example 104a, (*R)-6-fluoro-8-methyl-7-((4-(methylsulfonyl)phenyl)(pyridin-4-yl)methoxy)chroman-4-one]
HLA-DRB1*0401
  IC50: 0.29 µM
[1]; Mus musculus, T-cell
  IC50: 3.9 µM

## Cc1c(O[C@H](c2ccncc2)c2ccc(S(C)(=O)=O)cc2)c(F)cc2c1OCCC2=O (single isomer, unassigned) [Example 104b, (*S)-6-fluoro-8-methyl-7-((4-(methylsulfonyl)phenyl)(pyridin-4-yl)methoxy)chroman-4-one]
HLA-DRB1*0401
  IC50: 0.23 µM
[1]; Mus musculus, T-cell
  IC50: 1.1 µM

## Cc1c(O[C@H](c2ccncc2)c2cccc(S(C)(=O)=O)c2)c(F)cc2c1OCCC2=O (single isomer, unassigned) [Example 105a, (*R)-6-fluoro-8-methyl-7-((3-(methylsulfonyl)phenyl)(pyridin-4-yl)methoxy)chroman-4-one]
HLA-DRB1*0401
  IC50: 0.2 µM
[1]; Mus musculus, T-cell
  IC50: > 15 µM

## Cc1c(O[C@@H](c2ccncc2)c2cccc(S(C)(=O)=O)c2)c(F)cc2c1OCCC2=O (single isomer, unassigned) [Example 105b, (*S)-6-fluoro-8-methyl-7-((3-(methylsulfonyl)phenyl)(pyridin-4-yl)methoxy)chroman-4-one]
HLA-DRB1*0401
  IC50: 0.19 µM
[1]; Mus musculus, T-cell
  IC50: 6 µM

## Cc1cc([C@H](Oc2ccc3c(c2C(C)C)OCCC3=O)c2ccc(C(N)=O)cc2)cc(C)n1 (single isomer, unassigned) [Example 106a, (*R)-4-((2,6-dimethylpyridin-4-yl)((8-isopropyl-4-oxochroman-7-yl)oxy)methyl)benzamide]
HLA-DRB1*0401
  IC50: 0.47 µM
[1]; Mus musculus, T-cell
  IC50: 0.057 µM

## Cc1cc([C@@H](Oc2ccc3c(c2C(C)C)OCCC3=O)c2ccc(C(N)=O)cc2)cc(C)n1 (single isomer, unassigned) [Example 106b, (*S)-4-((2,6-dimethylpyridin-4-yl)((8-isopropyl-4-oxochroman-7-yl)oxy)methyl)benzamide]
HLA-DRB1*0401
  IC50: 0.74 µM
[1]; Mus musculus, T-cell
  IC50: 0.37 µM

## CC(C)c1c(O[C@H](c2ccc(C(N)=O)cc2)c2cccc(C#N)c2)ccc2c1OCCC2=O (single isomer, unassigned) [Example 107a, (*R)-4-((3-cyanophenyl)((8-isopropyl-4-oxochroman-7-yl)oxy)methyl)benzamide]
HLA-DRB1*0401
  IC50: 0.94 µM
[1]; Mus musculus, T-cell
  IC50: 10 µM

## CC(C)c1c(O[C@@H](c2ccc(C(N)=O)cc2)c2cccc(C#N)c2)ccc2c1OCCC2=O (single isomer, unassigned) [Example 107b, (*S)-4-((3-cyanophenyl)((8-isopropyl-4-oxochroman-7-yl)oxy)methyl)benzamide]
HLA-DRB1*0401
  IC50: 1.1 µM
[1]; Mus musculus, T-cell
  IC50: 2.3 µM

## CC(C)c1c(O[C@H](c2ccc(C(N)=O)cc2)c2ccc(C(=O)O)cc2)ccc2c1OCCC2=O (single isomer, unassigned) [Example 108a, (*R)-4-((4-carbamoylphenyl)((8-isopropyl-4-oxochroman-7-yl)oxy)methyl)benzoic acid]
HLA-DRB1*0401
  IC50: 0.86 µM
[1]; Mus musculus, T-cell
  IC50: > 15 µM

## CC(C)c1c(O[C@@H](c2ccc(C(N)=O)cc2)c2ccc(C(=O)O)cc2)ccc2c1OCCC2=O (single isomer, unassigned) [Example 108b, (*S)-4-((4-carbamoylphenyl)((8-isopropyl-4-oxochroman-7-yl)oxy)methyl)benzoic acid]
HLA-DRB1*0401
  IC50: 0.82 µM
[1]; Mus musculus, T-cell
  IC50: 2.7 µM

## Cc1cc([C@H](Oc2cc3c(cc2F)C(=O)CCO3)c2ccc(C(N)=O)cc2)cc(C)n1 (single isomer, unassigned) [Example 109a, (*R)-4-((2,6-dimethylpyridin-4-yl)((6-fluoro-4-oxochroman-7-yl)oxy)methyl)benzamide]
HLA-DRB1*0401
  IC50: 0.21 µM
[1]
  IC50: 1.1 µM

## Cc1cc([C@@H](Oc2cc3c(cc2F)C(=O)CCO3)c2ccc(C(N)=O)cc2)cc(C)n1 (single isomer, unassigned) [Example 109b, (*S)-4-((2,6-dimethylpyridin-4-yl)((6-fluoro-4-oxochroman-7-yl)oxy)methyl)benzamide]
HLA-DRB1*0401
  IC50: 0.23 µM
[1]
  IC50: 12 µM

## Cc1cc([C@H](Oc2ccc3c(c2C#N)OCCC3=O)c2ccc(C(N)=O)cc2)cc(C)n1 (single isomer, unassigned) [Example 110a, (*R)-4-(((8-cyano-4-oxochroman-7-yl)oxy)(2,6-dimethylpyridin-4-yl)methyl)benzamide]
HLA-DRB1*0401
  IC50: 0.55 µM
[1]; Mus musculus, T-cell
  IC50: 0.12 µM

## Cc1cc([C@@H](Oc2ccc3c(c2C#N)OCCC3=O)c2ccc(C(N)=O)cc2)cc(C)n1 (single isomer, unassigned) [Example 110b, (*S)-4-(((8-cyano-4-oxochroman-7-yl)oxy)(2,6-dimethylpyridin-4-yl)methyl)benzamide]
HLA-DRB1*0401
  IC50: 0.61 µM
[1]; Mus musculus, T-cell
  IC50: 0.79 µM

## Cc1cc([C@H](Oc2ccc3c(c2C)OCCC3=O)c2ccc(C(N)=O)cc2)cc(C)n1 (single isomer, unassigned) [Example 111a, (*R)-4-((2,6-dimethylpyridin-4-yl)((8-methyl-4-oxochroman-7-yl)oxy)methyl)benzamide]
HLA-DRB1*0401
  IC50: 0.49 µM
[1]; Mus musculus, T-cell
  IC50: 0.6 µM

## Cc1cc([C@H](Oc2ccc3c(c2C)OC(C)(C)CC3=O)c2ccc(C(N)=O)cc2)cc(C)n1 (single isomer, unassigned) [Example 112a, (*R)-4-((2,6-dimethylpyridin-4-yl)((2,2,8-trimethyl-4-oxochroman-7-yl)oxy)methyl)benzamide]
HLA-DRB1*0401
  IC50: 0.76 µM
[1]; Mus musculus, T-cell
  IC50: 0.41 µM

## Cc1cc([C@@H](Oc2ccc3c(c2C)OC(C)(C)CC3=O)c2ccc(C(N)=O)cc2)cc(C)n1 (single isomer, unassigned) [Example 112b, (*S)-4-((2,6-dimethylpyridin-4-yl)((2,2,8-trimethyl-4-oxochroman-7-yl)oxy)methyl)benzamide]
HLA-DRB1*0401
  IC50: 0.6 µM
[1]; Mus musculus, T-cell
  IC50: 4 µM
